pIC50: −log10 of the molar value.
Target: human adenosine A2b receptor (Homo sapiens (Human), UniProt P29275)
Test: Cellular in vitro reporter gene test for A2b receptor activity (CHO-K1, CRE-luciferase, NECA stimulation)
Type: cell-based
Settings: recombinant CHO-K1 cell line, CRE-luciferase reporter, antagonism of EC50 concentration of NECA; in some cases means of several determinations, rounded to two significant figures; read-out: A2b receptor IC50
Method: B-1. Cellular In Vitro Tests for Determining A2b Receptor Activity and Adenosine Receptor Selectivity
In the case of the A2a and A2b cell lines, this is a minimal promoter having a plurality of cAMP-responsive elements (CRE). Stimulation of the Gs-coupled A2b or A2a receptors by NECA ultimately leads, via formation of cAMP, to CRE-dependent induction of luciferase expression, which is detected 3 hours after the start of the incubation with NECA using a detection solution in a suitable luminometer. For testing the antagonists, initially, in a pre-experiment, the concentration of NECA which, at the test day in question, results in half-maximum stimulation of luciferase expression (EC50 concentration) is determined. By joint incubation of this EC50 concentration of NECA with the substances to be tested, it is possible to determine their antagonistic activity.

human adenosine A2b receptor, sequence (P29275 whole entry): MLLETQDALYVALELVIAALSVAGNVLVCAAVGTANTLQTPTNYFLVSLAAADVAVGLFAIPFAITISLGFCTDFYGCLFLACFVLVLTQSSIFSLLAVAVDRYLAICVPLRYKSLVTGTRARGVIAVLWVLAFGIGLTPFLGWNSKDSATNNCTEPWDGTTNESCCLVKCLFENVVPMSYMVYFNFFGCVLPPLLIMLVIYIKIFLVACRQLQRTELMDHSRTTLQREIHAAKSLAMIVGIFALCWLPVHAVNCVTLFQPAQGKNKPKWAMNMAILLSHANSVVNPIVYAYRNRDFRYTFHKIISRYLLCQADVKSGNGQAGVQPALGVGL

pIC50	SMILES
7.39	Cc1c(CN2CCNC2=O)sc2c1c(=O)n(CC(C)C)c(=O)n2CC1CCO1 (single isomer, unassigned) [Example 195, 3-Isobutyl-5-methyl-1-(oxetan-2-ylmethyl)-6-[(2-oxoimidazolidin-1-yl)methyl]thieno[2,3-d]pyrimidine-2,4(1H,3H)-dione]
8.04	COC(=O)N=C1NCCN1Cc1sc2c(c1C)c(=O)n(CC(C)(C)C)c(=O)n2CCC(F)(F)F [Example 461, Methyl [1-{[3-(2,2-dimethylpropyl)-5-methyl-2,4-dioxo-1-(3,3,3-trifluoropropyl)-1,2,3,4-tetrahydrothieno[2,3-d]pyrimidin-6-yl]methyl}imidazolidin-2-ylidene]carbamate]
7.96	Cc1c(CN2CCNC2=O)sc2c1c(=O)n(CC(F)(F)F)c(=O)n2CC1CCO1 (racemic) [Example 206, 5-Methyl-1-(oxetan-2-ylmethyl)-6-[(2-oxoimidazolidin-1-yl)methyl]-3-(2,2,2-trifluoroethyl)thieno[2,3-d]pyrimidine-2,4(1H,3H)-dione]
8.60	CCn1c(=O)c2c(C)c(CN3CCNC3=O)sc2n(CCCC(F)(F)F)c1=O [Example 49, 3-Ethyl-5-methyl-6-[(2-oxoimidazolidin-1-yl)methyl]-1-(4,4,4-trifluorobutyl)thieno[2,3-d]pyrimidine-2,4(1H,3H)-dione]
8.89	C=CCCn1c(=O)c2c(C)c(CN3CCNC3=O)sc2n(CCOC)c1=O [Example 316, 3-(But-3-en-1-yl)-1-(2-methoxyethyl)-5-methyl-6-[(2-oxoimidazolidin-1-yl)methyl]thieno[2,3-d]pyrimidine-2,4(1H,3H)-dione]
7.42	CCn1c(=O)c2c(C)c(CN3CCNC(=O)C3=O)sc2n(CCOC2CC2)c1=O [Example 270, 1-[2-(Cyclopropyloxy)ethyl]-6-[(2,3-dioxopiperazin-1-yl)methyl]-3-ethyl-5-methylthieno[2,3-d]pyrimidine-2,4(1H,3H)-dione]
7.00	COCCn1c(=O)n(CC(C)(C)OC)c(=O)c2c(C)c(CN3CCNC3=O)sc21 [Example 238, 1-(2-Methoxyethyl)-3-(2-methoxy-2-methylpropyl)-5-methyl-6-[(2-oxoimidazolidin-1-yl)methyl]thieno[2,3-d]pyrimidine-2,4(1H,3H)-dione]
8.19	Cc1c(CN2CCNC2=O)sc2c1c(=O)n(CC(C)C)c(=O)n2CC1CCO1 (single isomer, unassigned) [Example 196, 3-Isobutyl-5-methyl-1-(oxetan-2-ylmethyl)-6-[(2-oxoimidazolidin-1-yl)methyl]thieno[2,3-d]pyrimidine-2,4(1H,3H)-dione]
6.92	Cc1c(CN2CCN(C(C)C)C(=O)C2=O)sc2c1c(=O)n(CC(C)C)c(=O)n2CCCF [Example 496, 1-(3-Fluoropropyl)-3-isobutyl-6-[(4-isopropyl-2.3-dioxopiperazin-1-yl)methyl]-5-methylthieno[2,3-d]pyrimidine-2,4(1H,3H)-dione]
8.51	CCn1c(=O)c2c(C)c(CN3CCNC3=NC(=O)OC)sc2n(CCOC)c1=O (single isomer, unassigned) [Example 118, Methyl [1-{[3-ethyl-1-(2-methoxyethyl)-5-methyl-2,4-dioxo-1,2,3,4-tetrahydrothieno[2,3-d]pyrimidin-6-yl]methyl}imidazolidin-2-ylidene]carbamate]
7.22	COC(C)Cn1c(=O)c2c(C)c(Cn3nc[nH]c3=O)sc2n(CCC(F)(F)F)c1=O (single isomer, unassigned) [Example 442, 3-(2-Methoxypropyl)-5-methyl-6-[(5-oxo-4,5-dihydro-1H-1,2,4-triazol-1-yl)methyl]-1-(3,3,3-trifluoropropyl)thieno[2,3-d]pyrimidine-2,4(1H,3H)-dione]
7.10	COCCn1c(=O)n(CC(F)(F)F)c(=O)c2c(C)c(Cn3[nH]ccc3=O)sc21 [Example 283, 1-(2-Methoxyethyl)-5-methyl-6-[(5-oxo-2,5-dihydro-1H-pyrazol-1-yl)methyl]-3-(2,2,2-trifluoroethyl)thieno[2,3-d]pyrimidine-2,4(1H,3H)-dione]
7.43	Cc1c(Cn2nc[nH]c2=O)sc2c1c(=O)n(CC(C)(C)C)c(=O)n2CCC(F)(F)F [Example 427, 3-(2,2-Dimethylpropyl)-5-methyl-6-[(5-oxo-4,5-dihydro-1H-1,2,4-triazol-1-yl)methyl]-1-(3,3,3-trifluoropropyl)thieno[2,3-d]pyrimidine-2,4(1H,3H)-dione]
7.49	Cc1c(CN2CCNC2=O)sc2c1c(=O)n(CC(C)(C)C)c(=O)n2CC1CCCO1 (single isomer, unassigned) [Example 407, 3-(2,2-Dimethylpropyl)-5-methyl-6-[(2-oxoimidazolidin-1-yl)methyl]-1-(tetrahydrofuran-2-ylmethyl)thieno[2,3-d]pyrimidine-2,4(1H,3H)-dione]
7.40	Cc1c(CN2CCNC2=O)sc2c1c(=O)n(C(C)C)c(=O)n2CC1CCCO1 (single isomer, unassigned) [Example 188, 3-Isopropyl-5-methyl-6-[(2-oxoimidazolidin-1-yl)methyl]-1-(tetrahydrofuran-2-ylmethyl)thieno[2,3-d]pyrimidine-2,4(1H,3H)-dione]
6.92	Cc1c(CN2CCNC(=O)C2=O)sc2c1c(=O)n(C(C)C)c(=O)n2CC1CCO1 (racemic) [Example 397, 6-[(2,3-Dioxopiperazin-1-yl)methyl]-3-isopropyl-5-methyl-1-(oxetan-2-ylmethyl)thieno[2,3-d]pyrimidine-2,4(1H,3H)-dione]
8.25	COC(=O)N=C1NCCN1Cc1sc2c(c1C)c(=O)n(CC(C)OC)c(=O)n2CCC(F)(F)F (single isomer, unassigned) [Example 474, Methyl [1-{[3-(2-methoxypropyl)-5-methyl-2,4-dioxo-1-(3,3,3-trifluoropropyl)-1,2,3,4-tetrahydrothieno[2,3-d]pyrimidin-6-yl]methyl}imidazolidin-2-ylidene]carbamate]
8.25	CCCn1c(=O)n(CC)c(=O)c2c(C)c(CN3CCNC3=O)sc21 [Example 77, 3-Ethyl-5-methyl-6-[(2-oxoimidazolidin-1-yl)methyl]-1-propylthieno[2,3-d]pyrimidine-2,4(1H,3H)-dione]
8.72	Cc1c(CN2CCNC2=S)sc2c1c(=O)n(CC(C)C)c(=O)n2CCC(F)(F)F [Example 38, 3-Isobutyl-5-methyl-6-[(2-thioxoimidazolidin-1-yl)methyl]-1-(3,3,3-trifluoropropyl)thieno[2,3-d]pyrimidine-2,4(1H,3H)-dione]
8.47	COC(=O)N=C1NCCN1Cc1sc2c(c1C)c(=O)n(C(C)C)c(=O)n2CCC(F)(F)F [Example 377, Methyl [1-{[3-isopropyl-5-methyl-2,4-dioxo-1-(3,3,3-trifluoropropyl)-1,2,3,4-tetrahydrothieno[2,3-d]pyrimidin-6-yl]methyl}imidazolidin-2-ylidene]carbamate]
7.37	[2H]C([2H])(c1sc2c(c1C)c(=O)n([C@H](C)C(F)(F)F)c(=O)n2CCOC)N1CCNC1=O [Example 501, 1-(2-Methoxyethyl)-5-methyl-6-[(2-oxoimidazolidin-1-yl)(dideutero)methyl]-3-[(2R)-1,1,1-trifluoropropan-2-yl]thieno[2,3-d]pyrimidine-2,4(1H,3H)-dione]
